Where “and” joins values, the source holds several entries; their conditions need not be identical. Equal entries are not always repeated. Toxic doses and inconclusive results are not listed. Rule as the data show it: active = T/C of 150% or more; inactive = T/C below 125%.
Tested on: L1210 leukemia ip in BDF1 mice, survival T/C
Assay: NCI In Vivo Anticancer Drug Screen. Data for tumor model L1210 Leukemia (intraperitoneal) in B6D2F1 (BDF1) mice
Settings: endpoint: mean survival time, higher = longer survival
In short: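 Ratio derived from survival: compound-dosed mice over vehicle-dosed mice, all bearing a transplantable tumor.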

[1] = dose: 100.0 mg/kg/injection, schedule: Q01DX009 (ip), vehicle: Klucel (hydroxypropylcellulose) (HPC)
[2] = dose: 200.0 mg/kg/injection, schedule: Q01DX009 (ip), vehicle: Klucel (hydroxypropylcellulose) (HPC)
[3] = dose: 400.0 mg/kg/injection, schedule: Q01DX009 (ip), vehicle: Klucel (hydroxypropylcellulose) (HPC)
[4] = dose: 25.0 mg/kg/injection, schedule: Q01DX009 (ip), vehicle: saline with Tween-80
[5] = dose: 50.0 mg/kg/injection, schedule: Q01DX009 (ip), vehicle: saline with Tween-80
[6] = dose: 100.0 mg/kg/injection, schedule: Q01DX001 (ip), vehicle: saline with Tween-80
[7] = dose: 100.0 mg/kg/injection, schedule: Q01DX009 (ip), vehicle: saline with Tween-80
[8] = dose: 200.0 mg/kg/injection, schedule: Q01DX001 (ip), vehicle: saline with Tween-80
[9] = dose: 200.0 mg/kg/injection, schedule: Q01DX009 (ip), vehicle: saline with Tween-80
[10] = dose: 100.0 mg/kg/injection, schedule: Q01DX001 (ip), vehicle: carboxymethylcellulose (CMC)
[11] = dose: 200.0 mg/kg/injection, schedule: Q01DX001 (ip), vehicle: carboxymethylcellulose (CMC)
[12] = dose: 400.0 mg/kg/injection, schedule: Q01DX001 (ip), vehicle: carboxymethylcellulose (CMC)
[13] = dose: 100.0 mg/kg/injection, schedule: Q01DX001 (ip), vehicle: Klucel (hydroxypropylcellulose) (HPC)
[14] = dose: 100.0 mg/kg/injection, schedule: Q04DX003 (ip), vehicle: saline
[15] = dose: 50.0 mg/kg/injection, schedule: Q01DX009 (ip), vehicle: saline
[16] = dose: 100.0 mg/kg/injection, schedule: Q01DX009 (ip), vehicle: saline
[17] = dose: 200.0 mg/kg/injection, schedule: Q01DX009 (ip), vehicle: saline

Measured: T/C

O=[N+]([O-])/C(=C/C=C/c1ccccc1)c1ccccc1
inactive: dose: 50.0 mg/kg/injection, schedule: Q01DX009 (ip), vehicle: Klucel (hydroxypropylcellulose) (HPC) 96 % of control | [1] 89 % of control | [2] 86 % of control

CC(=O)N(C)c1ccc(NC(=O)Nc2cc(C(F)(F)F)ccc2Cl)cc1
inactive: [1] 96 % of control | [2] 94 % of control | [3] 94 % of control

[O-]/[N+](=N\O)c1ccc(/[N+]([O-])=N\O)cc1
inactive: dose: 12.5 mg/kg/injection, schedule: Q01DX009 (ip), vehicle: saline with Tween-80 88 % of control | [4] 88 % of control | [5] 97 % of control and 107 % of control and 91 % of control | [6] 95 % of control | [7] 102 % of control | [8] 98 % of control | [9] 87 % of control

Nc1nnnc2nc[nH]c12
inactive: dose: 12.5 mg/kg/injection, schedule: Q01DX Z (ip), vehicle: carboxymethylcellulose (CMC) 100 % of control | dose: 25.0 mg/kg/injection, schedule: Q01DX Z (ip), vehicle: carboxymethylcellulose (CMC) 93 % of control

CCCCC(CC)COc1ccc(N=C(N)N=C(N)N)cc1 (configuration not stated)
inactive: dose: 100.0 mg/kg/injection, schedule: Q04DX002 (ip), vehicle: saline with Tween-80 105 % of control

CC(=O)OC1CC2C=CC1CC2 (configuration not stated)
inactive: dose: 50.0 mg/kg/injection, schedule: Q01DX001 (ip), vehicle: carboxymethylcellulose (CMC) 111 % of control | [10] 101 % of control | [11] 95 % of control | [12] 101 % of control

Cc1ccc(C(=O)C(C)CN2CCCCC2)cc1 (configuration not stated)
inactive: dose: 100.0 mg/kg/injection, schedule: Q01DX001 (ip), vehicle: saline 97 % of control | dose: 200.0 mg/kg/injection, schedule: Q01DX001 (ip), vehicle: saline 94 % of control

N/C(=N\O)c1cn(C2OC(CO)C(O)C2O)c2nc(Cl)nc(N)c12 (configuration not stated)
inactive: dose: 50.0 mg/kg/injection, schedule: Q01DX001 (ip), vehicle: Klucel (hydroxypropylcellulose) (HPC) 109 % of control | [13] 115 % of control

Cc1ccc(Nc2ccc(C)cc2[N+](=O)[O-])cc1
inactive: [10] 105 % of control | [11] 102 % of control | [12] 94 % of control

COC(=O)N/N=C/Cc1ccccc1
inactive: [4] 91 % of control | [5] 90 % of control | [7] 102 % of control

C[N+]1(CCCl)CCOCC1
inactive: dose: 20.0 mg/kg/injection, schedule: Q01DX009 (ip), vehicle: Klucel (hydroxypropylcellulose) (HPC) 97 % of control | dose: 40.0 mg/kg/injection, schedule: Q01DX009 (ip), vehicle: Klucel (hydroxypropylcellulose) (HPC) 102 % of control

COP(=O)(NC12CC3CC(CC(C3)C1)C2)OC
inactive: [1] 103 % of control | dose: 100.0 mg/kg/injection, schedule: Q04DX003 (ip), vehicle: Klucel (hydroxypropylcellulose) (HPC) 97 % of control | [2] 100 % of control | dose: 200.0 mg/kg/injection, schedule: Q04DX003 (ip), vehicle: Klucel (hydroxypropylcellulose) (HPC) 95 % of control | [3] 101 % of control | dose: 400.0 mg/kg/injection, schedule: Q04DX003 (ip), vehicle: Klucel (hydroxypropylcellulose) (HPC) 95 % of control

NC(CCl)=NCc1ccccc1
inactive: dose: 6.25 mg/kg/injection, schedule: Q01DX009 (ip), vehicle: saline 97 % of control and 98 % of control | dose: 12.5 mg/kg/injection, schedule: Q01DX009 (ip), vehicle: saline 101 % of control and 115 % of control | dose: 25.0 mg/kg/injection, schedule: Q01DX001 (ip), vehicle: saline 98 % of control | dose: 25.0 mg/kg/injection, schedule: Q04DX002 (ip), vehicle: saline 105 % of control and 91 % of control | dose: 25.0 mg/kg/injection, schedule: Q04DX003 (ip), vehicle: saline 90 % of control | dose: 50.0 mg/kg/injection, schedule: Q01DX001 (ip), vehicle: saline 97 % of control | dose: 50.0 mg/kg/injection, schedule: Q04DX002 (ip), vehicle: saline 94 % of control and 89 % of control | dose: 50.0 mg/kg/injection, schedule: Q04DX003 (ip), vehicle: saline 97 % of control | [14] 95 % of control

Cc1c(NC(=O)Nc2ccccc2C(F)(F)F)c(=O)n(-c2ccccc2)n1C
inactive: [7] 104 % of control | [9] 98 % of control | dose: 400.0 mg/kg/injection, schedule: Q01DX009 (ip), vehicle: saline with Tween-80 91 % of control

O=c1[nH]c(-c2ccccc2N=NN2CCCCC2)nc2ccccc12
inactive: dose: 25.0 mg/kg/injection, schedule: Q04DX002 (ip), vehicle: saline with Tween-80 100 % of control | dose: 50.0 mg/kg/injection, schedule: Q04DX002 (ip), vehicle: saline with Tween-80 103 % of control | dose: 200.0 mg/kg/injection, schedule: Q04DX002 (ip), vehicle: saline with Tween-80 103 % of control | dose: 400.0 mg/kg/injection, schedule: Q04DX002 (ip), vehicle: saline with Tween-80 88 % of control

CCOC(=O)C1C(=O)NCC1c1ccccc1 (configuration not stated)
inactive: [15] 94 % of control and 97 % of control | [16] 104 % of control | [17] 108 % of control and 91 % of control

CN(C)N=Nc1cn(C2OC(CO)C(O)C2O)c(=O)[nH]c1=O (configuration not stated)
inactive: [16] 111 % of control | [17] 120 % of control

[Cl][Co][Cl].[NH-]CCN1CC1
inactive: [14] 90 % of control

Cc1ccc(NC(=O)OCC2CC3C=CC2C3)cc1NC(=O)OCC1CC2C=CC1C2 (configuration not stated)
inactive: [1] 87 % of control | [2] 90 % of control | [3] 90 % of control

CCOC(=S)c1ccc(S(=O)(=O)NCc2ccccc2)cc1
inactive: [6] 100 % of control | [8] 102 % of control | dose: 400.0 mg/kg/injection, schedule: Q01DX001 (ip), vehicle: saline with Tween-80 100 % of control

O=[N+]([O-])c1ccc(N/N=C(\CCc2ccccc2)c2ccccc2)c([N+](=O)[O-])c1
inactive: [5] 93 % of control | [7] 96 % of control | [9] 86 % of control

CC(C)(O)C(I)C[n+]1ccccc1 (configuration not stated)
inactive: [15] 107 % of control | dose: 88.0 mg/kg/injection, schedule: Q04DX003 (ip), vehicle: saline with Tween-80 124 % of control | [16] 110 % of control and 113 % of control | dose: 100.0 mg/kg/injection, schedule: Q04DX003 (ip), vehicle: saline with Tween-80 106 % of control | [14] 102 % of control and 111 % of control | dose: 133.0 mg/kg/injection, schedule: Q04DX003 (ip), vehicle: saline with Tween-80 119 % of control | dose: 175.0 mg/kg/injection, schedule: Q04DX003 (ip), vehicle: saline 106 % of control | [17] 117 % of control and 121 % of control | dose: 200.0 mg/kg/injection, schedule: Q04DX003 (ip), vehicle: saline with Tween-80 117 % of control | dose: 200.0 mg/kg/injection, schedule: Q04DX003 (ip), vehicle: saline 108 % of control | dose: 265.0 mg/kg/injection, schedule: Q04DX003 (ip), vehicle: saline 114 % of control | dose: 400.0 mg/kg/injection, schedule: Q04DX003 (ip), vehicle: saline 121 % of control | dose: 600.0 mg/kg/injection, schedule: Q04DX003 (ip), vehicle: saline 90 % of control

CC/C(=N\[N+](C)(C)C)c1ccccc1
inactive: dose: 18.8 mg/kg/injection, schedule: Q04DX003 (ip), vehicle: saline 100 % of control | dose: 37.5 mg/kg/injection, schedule: Q04DX003 (ip), vehicle: saline 97 % of control | dose: 75.0 mg/kg/injection, schedule: Q01DX001 (ip), vehicle: saline 100 % of control | dose: 75.0 mg/kg/injection, schedule: Q04DX003 (ip), vehicle: saline 100 % of control

CS(=O)(=O)Nc1ccccc1
inactive: dose: 75.0 mg/kg/injection, schedule: Q04DX003 (ip), vehicle: Klucel (hydroxypropylcellulose) (HPC) 98 % of control | [13] 96 % of control | dose: 150.0 mg/kg/injection, schedule: Q04DX003 (ip), vehicle: Klucel (hydroxypropylcellulose) (HPC) 93 % of control | dose: 200.0 mg/kg/injection, schedule: Q01DX001 (ip), vehicle: Klucel (hydroxypropylcellulose) (HPC) 101 % of control | dose: 300.0 mg/kg/injection, schedule: Q04DX003 (ip), vehicle: Klucel (hydroxypropylcellulose) (HPC) 93 % of control | dose: 400.0 mg/kg/injection, schedule: Q01DX001 (ip), vehicle: Klucel (hydroxypropylcellulose) (HPC) 96 % of control

— PubChem BioAssay AID248 (DTP/NCI, 2004)
